What was measured:
[1] = test system: primary human subcutaneous preadipocytes; test: High throughput screening of compound efficacy: fluorescent fatty acid (FA*) accumulation in differentiating human preadipocytes; assay type: cell-based; parameters: key to Relative Efficacy: “+++” designates a greater in vitro efficacy than “++”; “++”, which in turn is greater than “+”; “+”; conditions: for Relative Efficacy: inhibitors of fatty acid accumulation into differentiating adipocytes at a concentration of 100 nM
Method: Protocol for High Throughput Screening of Compound Efficacy on Human Preadipocytes Up to five cell strains of banked primary human subcutaneous preadipocytes were used for high throughput screening. […] Cells were split up to four times to produce enough cells for screening. […] On day zero, cells were incubated with growth medium to induce differentiation of preadipocytes into adipocytes (characterized by cell rounding, formation of triglyceride droplets, etc.). Growth medium was changed every three days. On day six, cells were incubated in triplicate with test compounds at various concentrations. […] Cell plates were prewashed with FAB+, and then FA* was added. Cells were incubated with FA* for four hours, and then postwashed with FAB+ to remove unincorporated FA*. Cellular fluorescence of triglyceride droplets that have incorporated FA* was measured on a microplate reader. Efficacy of compounds on inhibiting FA* accumulation was determined by the following calculation: […]

mice = conditions: single injections; cited from earlier work
[2] = test system: primary human subcutaneous preadipocytes; conditions: at 10 μM; Alamar Blue
Method: Subsequent determination of compound toxicity was measured by incubating cells with Alamar Blue (an indicator of cellular viability, purchased from BioSource International Inc., Camarillo, Calif., USA) for three to four hours before measuring fluorescence of the reduced compound. Toxicity of compounds was determined by the following calculation:
% Toxicity=100−(sample fluorescence/negative control fluorescence*100)

Row | Structure (SMILES) | Relative Efficacy [1] | also measured
1 | O=C(Nc1ccncc1)c1cc([N+](=O)[O-])ccc1Cl [AGX-0104] | +++ | 
2 | O=C(Nc1cccnc1)c1cc([N+](=O)[O-])ccc1Cl [AGX-0105] | +++ | 
3 | Cc1cc(NC(=O)c2cc([N+](=O)[O-])ccc2Cl)no1 [AGX-0114] | ++ | 
4 | C=C1C(=O)OC(CCCCCCCC)C1C(=O)O (stereo not drawn) [C75] |  | ate less than untreated littermates consumed (mice): 90%
5 | N#CC(C#N)=NNc1ccc(OC(F)(F)F)cc1 [FCCP, carbonyl cyanide p-(trifluoromethoxy)-phenylhydrazone] |  | % Toxicity [2]: 100%; Emax at 10 µM ([1]; Homo sapiens, at 10 μM, read-out: % Efficacy (inhibiting FA* accumulation)): 100%

From patent publication US20030130343A1, “Fat accumulation-modulating compounds” (AdipoGenix, Inc., priority 2001, published 2003)
